Measured values reported in PubChem BioAssay AID1963827 (Molecular Pharmacology Branch, DTP, NCI, 2024).

System: 994946-033-R-J1-PDC complex spheroid viability
Assay: Anticancer human tumor 994946-033-R-J1-PDC patient-derived melanoma cell line growth inhibition [POLQ]
Details: for IC50: curve of first compound; for viability, T/C: stronger effect = lower value
Method: Multicellular complex tumor spheroid response to Polymerase (POL) inhibitors (novobiocin, ART-558, RP6685) in combination with a variety of drugs and investigational agents in selected tumor cell lines
The POL inhibitors (novobiocin, ART-558, and RP6685) were evaluated both individually and in combination with standard of care and investigational anticancer small molecules within a complex spheroid model of solid tumors. . Complex spheroids include a stromal component modeled by human endothelial cells (HUVEC) and fibroblasts modeled by human mesenchymal stem cells (MSCs). The concentration ranges selected for each drug and investigational agent were based upon clinically achievable concentrations if the clinical Cmax of the agent was known.
Compounds. The drugs and investigational agents: novobiocin (NSC847541), ART-558 (NSC835418), RP-6685 (NSC848927), peposertib (NSC802822), ceralasertib (NSC780249), elimusertib (NSC800525), camonsertib (NSC841442), AZD-1390 (NSC803789), olaparib (NSC753686), talazoparib (NSC767125), rucaparib (NSC756644), sotorasib (NSC818433), MRTX-1133 (NSC836407), SN-38 (NSC673596), topotecan (NSC609699), epotoside (NSC141540), doxorubicin (NSC123127), gemcitabine (NSC613327), 5-fluorouracil (NSC19893), paclitaxel (NSC125973), vemurafenib (NSC761431), MSA-2 (NSC828583), SN-011 (NSC837082), adavosertib (NSC754352), prexasertib (NSC758257), carboplatin (NSC241240) and oxaliplatin (NSC266046), were obtained from the National Cancer Institute (NCI) Developmental Therapeutics Program Chemical Repository (21). The FDA-approved anticancer drug set is available from the Developmental Therapeutics Program at https://dtp.cancer.gov/organization/dscb/obtaining/. […] The stock solutions were prepared in dimethyl sulfoxide (DMSO, Sigma-Aldrich, St. Louis, MO, cat. D2650), except for the platinum compounds which were prepared in saline (Quality Biological, Gaithersburg, MD, cat. 114-055-101), at 800-fold the tested concentration and stored at -70 degrees C prior to their use. All drugs and investigational agents were tested over a range starting from a high concentration at or near the clinical Cmax and decreasing in half-log increments. If the clinical Cmax for an agent had not been determined, the highest concentration tested was 10 microM, except for SN-38, which was tested at a high concentration of 1 microM.
Cell Culture. All cells were maintained in an incubator at 37 degrees C and 5% CO2 with 95% humidity. The PDC lines were cultured according to standard operating procedures established by the NCI PDMR (https://pdmr.cancer.gov). Table 3 of the manuscript, lists the cell lines along with the number of the three cell types plated to form the mct-spheroids and media for tumor cell growth. After thawing, all PDC lines, except 997537-175-T-J1-PDC and 415267-285-R-J2-PDC, were cultured in Matrigel-coated flasks prepared with a working solution of 1X Ham's F-12 nutrient mix, without supplementation (Thermo Fisher Scientific, cat. 11765054), 100 U/mL penicillin-streptomycin (Thermo Fisher Scientific, cat. 15140122), and 2.5% Matrigel (Corning Inc., Corning, NY, cat. 354248) for the first three passages. The two PDC lines 997537-175-T-J1-PDC and 415267-285-R-J2-PDC were cultured on uncoated flasks. The 857933-349-R-J2-PDC line was cultured in 6C/Colon 1B media containing advanced DMEM/F-12 (Thermo Fisher Scientific, cat. 12634028), 10 mM HEPES (Thermo Fisher Scientific, cat. 15630080), 1X GlutaMAX supplement (Thermo Fisher Scientific, cat. 35050061), 0.1 mg/mL primocin (InvivoGen, San Diego, CA, cat. ant-pm-2), 10% defined fetal bovine serum, heat inactivated (HyClone Laboratories Inc., Logan, UT, cat. SH30070.03HI), 50% L-WRN conditioned media (ATCC, cat. CRL-3276), 1.25 mM N-Acetyl-L-cysteine (Sigma-Aldrich, cat. A9165), 10 mM nicotinamide (Sigma-Aldrich, cat. N0636), 1X B-27 supplement (Thermo Fisher Scientific, cat. 17504044), 1X N-2 supplement (Thermo Fisher Scientific, cat. […]

[1] = second compound 0.0316 µM, first compound 0.00316 µM
[2] = second compound 0.0316 µM, first compound 0.01 µM
[3] = second compound 0.0316 µM, first compound 0.0316 µM
[4] = second compound 0.0316 µM, first compound 0.1 µM
[5] = second compound 0.1 µM, first compound 0.00316 µM
[6] = second compound 0.1 µM, first compound 0.01 µM
[7] = second compound 0.1 µM, first compound 0.0316 µM
[8] = second compound 0.1 µM, first compound 0.1 µM
[9] = second compound 0.316 µM, first compound 0.00316 µM
[10] = second compound 0.316 µM, first compound 0.01 µM
[11] = second compound 0.316 µM, first compound 0.0316 µM
[12] = second compound 0.316 µM, first compound 0.1 µM
[13] = second compound 1 µM, first compound 0.00316 µM
[14] = second compound 1 µM, first compound 0.01 µM
[15] = second compound 1 µM, first compound 0.0316 µM
[16] = second compound 1 µM, first compound 0.1 µM
[17] = second compound 3.16 µM, first compound 0.00316 µM
[18] = second compound 3.16 µM, first compound 0.01 µM
[19] = second compound 3.16 µM, first compound 0.0316 µM
[20] = second compound 3.16 µM, first compound 0.1 µM
[21] = second compound 10 µM, first compound 0.00316 µM
[22] = second compound 10 µM, first compound 0.01 µM
[23] = second compound 10 µM, first compound 0.0316 µM
[24] = second compound 10 µM, first compound 0.1 µM
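Note: spheroids exposed to drugs for 7 days.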
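Throughout, for viability, T/C: 100% = DMSO vehicle treated spheroids.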

Work on CC[C@@]1(O)C(=O)OCc2c1cc1n(c2=O)Cc2cc3c(CN(C)C)c(O)ccc3nc2-1 + COC1C(OC(N)=O)C(O)C(Oc2ccc3c(O)c(NC(=O)c4ccc(O)c(CC=C(C)C)c4)c(=O)oc3c2C)OC1(C)C yielded an IC50 (second compound 0.0316 µM) of 21.2 nM, an IC50 (second compound 0.1 µM) of 19.8 nM and an IC50 (second compound 0.316 µM) of 21.4 nM. The IC50 (second compound 1 µM) was 20.5 nM, the IC50 (second compound 3.16 µM) was 17.7 nM and the IC50 (second compound 10 µM) was 20.2 nM. It also gave a viability, T/C (second compound 0.0316 µM, first compound 0.000316 µM) of 107%, a viability, T/C (second compound 0.0316 µM, first compound 0.001 µM) of 69.1% and a viability, T/C [1] of 117%. It also gave a viability, T/C [2] of 77.8%, a viability, T/C [3] of 34.3% and a viability, T/C [4] of 7.91%. For the same compound, the viability, T/C (second compound 0.1 µM, first compound 0.000316 µM) was 91.4%, the viability, T/C (second compound 0.1 µM, first compound 0.001 µM) was 101% and the viability, T/C [5] was 109%. For the same compound, the viability, T/C [6] was 79.2%, the viability, T/C [7] was 29.4% and the viability, T/C [8] was 8%. It also gave a viability, T/C (second compound 0.316 µM, first compound 0.000316 µM) of 96.6%, a viability, T/C (second compound 0.316 µM, first compound 0.001 µM) of 99.6% and a viability, T/C [9] of 91.3%. It also gave a viability, T/C [10] of 86%, a viability, T/C [11] of 31.5% and a viability, T/C [12] of 11.3%. The viability, T/C (second compound 1 µM, first compound 0.000316 µM) was 118%, the viability, T/C (second compound 1 µM, first compound 0.001 µM) was 107% and the viability, T/C [13] was 100%. It also gave a viability, T/C [14] of 81.5%, a viability, T/C [15] of 30.4% and a viability, T/C [16] of 15.1%. It also gave a viability, T/C (second compound 3.16 µM, first compound 0.000316 µM) of 92.7%, a viability, T/C (second compound 3.16 µM, first compound 0.001 µM) of 86.5% and a viability, T/C [17] of 77%. It also gave a viability, T/C [18] of 73.1%, a viability, T/C [19] of 28% and a viability, T/C [20] of 10.2%. For the same compound, the viability, T/C (second compound 10 µM, first compound 0.000316 µM) was 85.5%, the viability, T/C (second compound 10 µM, first compound 0.001 µM) was 86.9% and the viability, T/C [21] was 85.4%. It also gave a viability, T/C [22] of 81%, a viability, T/C [23] of 30.3% and a viability, T/C [24] of 8.24%.

CCc1c2c(nc3ccc(O)cc13)-c1cc3c(c(=O)n1C2)COC(=O)[C@]3(O)CC + COC1C(OC(N)=O)C(O)C(Oc2ccc3c(O)c(NC(=O)c4ccc(O)c(CC=C(C)C)c4)c(=O)oc3c2C)OC1(C)C was tested, and the IC50 (second compound 0.0316 µM) was under 3.16 nM, the IC50 (second compound 0.1 µM) was under 3.16 nM and the IC50 (second compound 0.316 µM) was under 3.16 nM. The IC50 (second compound 1 µM) was under 3.16 nM, the IC50 (second compound 3.16 µM) was under 3.16 nM and the IC50 (second compound 10 µM) was under 3.16 nM. The viability, T/C [1] was 21.2%, the viability, T/C [2] was 10.5% and the viability, T/C [3] was 5.04%. For the same compound, the viability, T/C [4] was 6.46%, the viability, T/C (second compound 0.0316 µM, first compound 0.316 µM) was 4.53% and the viability, T/C (second compound 0.0316 µM, first compound 1 µM) was 1.07%. The viability, T/C [5] was 14.8%, the viability, T/C [6] was 7.14% and the viability, T/C [7] was 4.91%. It also gave a viability, T/C [8] of 4.35%, a viability, T/C (second compound 0.1 µM, first compound 0.316 µM) of 3.22% and a viability, T/C (second compound 0.1 µM, first compound 1 µM) of 0.99%. It also gave a viability, T/C [9] of 20.7%, a viability, T/C [10] of 8.29% and a viability, T/C [11] of 4.94%. It also gave a viability, T/C [12] of 5%, a viability, T/C (second compound 0.316 µM, first compound 0.316 µM) of 3.67% and a viability, T/C (second compound 0.316 µM, first compound 1 µM) of 0.92%. It also gave a viability, T/C [13] of 21.2%, a viability, T/C [14] of 8.21% and a viability, T/C [15] of 5.36%. The viability, T/C [16] was 4.87%, the viability, T/C (second compound 1 µM, first compound 0.316 µM) was 3% and the viability, T/C (second compound 1 µM, first compound 1 µM) was 0.93%. For the same compound, the viability, T/C [17] was 17.8%, the viability, T/C [18] was 9.17% and the viability, T/C [19] was 4.15%. It also gave a viability, T/C [20] of 4.13%, a viability, T/C (second compound 3.16 µM, first compound 0.316 µM) of 3.2% and a viability, T/C (second compound 3.16 µM, first compound 1 µM) of 0.9%. The viability, T/C [21] was 16.8%, the viability, T/C [22] was 6.62% and the viability, T/C [23] was 5.93%. It also gave a viability, T/C [24] of 4.77%, a viability, T/C (second compound 10 µM, first compound 0.316 µM) of 2.81% and a viability, T/C (second compound 10 µM, first compound 1 µM) of 1.02%.
